Data from US20050250837A1, “Use of C-Raf inhibitors for the treatment of neurodegenerative diseases” (priority 2002, published 2005).

Key:
Assay type in all cases: cell-based, rat
[1] = system: cerebellar granule neurons; test: LK-induced apoptosis of cultured cerebellar granule neurons (MTT viability)
Method: Cultured cerebellar granule neurons undergo apoptosis when switched from HK to medium containing LK (D'Mello et al., 1993). […] Neuronal cultures were switched to medium containing LK, or LK medium containing different doses of GW5074. Cell viability was quantified 24 hours later. Control cultures received HK medium. […] Protection against LK-induced apoptosis is maximal at 1 uM.
Granule neuron cultures were obtained from dissociated cerebella of 7-8 day old rats as described previously (D'Mello et al., 1993). Cells were plated in Basal Eagle's Medium with Earles salts (BME) supplemented with 10% fetal bovine serum (FBS), 25 mM KCl, 2 mM glutamine (Gibco-BRL), and 100 ug/ml gentamycin on dishes coated with poly-L-lys ine in 24-well dishes at a density 1.0×10^6 cells/well, 1.2×10^7 cells/60 mm dish, or 3.0×10^7 cells/100 mm dish. Cytosine arabinofuranoside (10 uM) was added to the culture medium 18-22 hours after plating to prevent replication of non-neuronal cells. Cultures were maintained for 6-7 days prior to experimental treatments. For this, the cells were rinsed once and then maintained in low K^+ medium (serum-free BME medium, 5 mM KCl) or high K^+ medium (serum-free BME medium, supplemented with 20 mM KCl). When used to treat cultures, GW5074 was added at the time when cells were switched to LK medium. Treatment of cultures with pharmacological inhibitors was initiated 15 min prior to rinsing and was maintained through the subsequent incubation in LK or HK medium unless specified otherwise. For MPP+ and methylmercury treatments, 7-8 day old cultures were switched to HK medium containing 200 uM MPP+ or 0.5 uM methylmercury. Viability was assayed 24 hours later.
Neuronal survival was quantified by the MTT assay as previously described (Koulich et al., 2001). Briefly, the tetrazolium salt MTT [3-(4,5-dimethyl-2-thiazolyl)-2,5-diphenyl-2H tetrazolium bromide] was added to the cultures at a final concentration of 1 mg/ml, and incubation of the culture was continued in the CO2 incubator for a further 30 min at 37° C. The assay was stopped by adding lysis buffer [20% SDS in 50% N,N-dimethyl formamide, pH 4.7]. The absorbance was measured specrophotometrically at 570 nm after an overnight incubation at room temperature. The absorbance of a well without cells was used as background and subtracted. Results obtained using the MTT assays were confirmed using the fluorescein-diacetate method for quantification of cell viability, as previously described (D'Mello et al., 1993). Data are presented as mean+/−standard deviation. Statistical analysis was performed using ANOVA and Student-Neuman-Keuls' test.

ERK 1/2 = ERK 1/2 phosphorylation in neuronal cultures, Western blot; settings: LK plus GW5074, 1 or 3 hours
Source text: Activation of all three Raf proteins results in activation of MEK and ERK.
Survival of cerebellar granule neurons can be maintained by BDNF and this effect of BDNF is mediated by the Raf-MEK-ERK signaling pathway (Bonni et al., 1999). The Raf-MEK-ERK pathway is also involved in promoting survival of other neuronal and normeuronal cell types. A potent blocker of the Raf-MEK-ERK pathway is PD98059 (Alessi et al., 1995). In paradigms in which the Raf-MEK-ERK pathway mediates neuronal survival, such as BDNF-treated cerebellar granule neurons, the presence of […] blocks survival (Bonni et al., 1999). […] Lysates from the cultures were subjected to Western blotting using an antibody specific for phospho-ERK.
For whole-cell lysates, the culture medium was discarded, the neurons washed twice with ice-cold phosphate-buffered saline (PBS), and lysed in lysis buffer (1% Triton, 20 mM Tris-HCl (pH 7.5), 150 mM NaCl, 1 mM Na2EDTA, 1 mM EGTA, 2.5 mM sodium pyrophosphate, 1 mM beta-glycerophosphate, 1 mM Na3VO4, 1 μg/ml leupeptin and 1× protease inhibitor mixture). Protein concentrations were measured using a Bradford protein assay kit (Bio-Rad), and equivalent amounts of protein were mixed with 6×SDS-PAGE sample buffer. […] After staining with Ponceau S to verify uniformity of protein loads/transfer, the membranes were analyzed for immunoreactivity. […]

NF-κB = NF-κB DNA-binding activity, gel mobility shift assay; settings: LK + 1 uM GW5074, 6 hours
Method: Another molecule known to be important for neuronal survival is NF-κB. Although the precise mechanism has not been elucidated, the Raf is known to activate NF-κB in normeuronal cells via a MEK-ERK-independent mechanism (Foo and Nolan, 1999; Pearson et al., 2000). […] Viability was quantified 24 hours later and expressed as percentage of viability in HK.
One potential mediator of MEK-ERK-independent B-Raf signaling is NF-κB.
Nuclei from neuronal cultures were resuspended in buffer containing 20 mM HEPES pH 7.6, 50 mM KCl, 300 mM NaCl, 0.1 mM EDTA, 1 mM DTT, 0.1 mM PMSF, 10% glycerol, 1× protease inhibitor cocktail and extracted on ice for 30 min, followed by micro-centrifugation at 14,000 rpm for 10 min. The supernatants were collected as nuclear extracts. Concentrations of these nuclear extracts were determined by the Bradford method using reagents from Bio-Rad. Ten μg of each nuclear extract sample was incubated with 0.1 pmol of ^32P-labeled double-stranded KB binding oligonucleotide (5′-[…]-3′) identified as SEQ ID NO:1, or SP1 binding oligonucleotide (5′-[…]-3′) identified as SEQ ID NO:2, in buffer containing 1 μg of poly (d1-dC), 1 μg of BSA, 10 mM HEPES pH7.6, 0.5 mM DTT, 0.1 mM EDTA, 60 mM KCl, 0.2 mM PMSF, 5 mM MgCl2, and 12% glycerol at room temperature for 30 min. Samples were analyzed by 5% native polyacrylamide gel electrophoresis (PAGE) followed by autoradiography.

`O=C1Nc2ccc(I)cc2C1=Cc1cc(Br)c(O)c(Br)c1` [GW5074, 5-Iodo-3-[(3,5-dibromo-4-hydroxyphenyl)methylene]-2-indolinone] was tested, and the “neuroprotection against LK-induced apoptosis” value ([1]; 5 uM and 10 uM) was “Neuroprotection by GW5074 is also observed”, the “protection against LK-induced apoptosis” value ([1]; LK + 1 uM GW5074, 24 hours) was “prevents LK-induced apoptosis” and the “concentration of maximal protection against LK-induced apoptosis” value ([1]; viability 24 hours after switch to LK) was 1 µM. The “phosphorylation of ERK 1/2” value (ERK 1/2) was “increase in the phosphorylation of ERK 1/2” and the “NF-κB binding activity in LK” value (NF-κB) was “downregulation of NF-κB binding activity is prevented”.
